The target in the assay is human sodium ion channel 1.7 (hNav1.7) (Homo sapiens, UniProt Q15858). Nature of the assay: Blocking effect against sodium ion channel Nav1.7, IonFlux16 auto patch clamp in hNav1.7 HEK293 cells. Format: cell-based. (The patch-clamp technique gives a direct electrical read-out from membranes.)
Setting [1] is: hNav1.7 HEK293 cells, inhibition of peak current after 50 seconds treatment, eight concentrations, read-out: IC50.

Where two headings read alike, the source gives them in different places. Some results are limits rather than exact numbers.

What is called IC50 is the concentration that gives 50% inhibition.

Chain of human sodium ion channel 1.7 (hNav1.7) (Q15858 whole entry): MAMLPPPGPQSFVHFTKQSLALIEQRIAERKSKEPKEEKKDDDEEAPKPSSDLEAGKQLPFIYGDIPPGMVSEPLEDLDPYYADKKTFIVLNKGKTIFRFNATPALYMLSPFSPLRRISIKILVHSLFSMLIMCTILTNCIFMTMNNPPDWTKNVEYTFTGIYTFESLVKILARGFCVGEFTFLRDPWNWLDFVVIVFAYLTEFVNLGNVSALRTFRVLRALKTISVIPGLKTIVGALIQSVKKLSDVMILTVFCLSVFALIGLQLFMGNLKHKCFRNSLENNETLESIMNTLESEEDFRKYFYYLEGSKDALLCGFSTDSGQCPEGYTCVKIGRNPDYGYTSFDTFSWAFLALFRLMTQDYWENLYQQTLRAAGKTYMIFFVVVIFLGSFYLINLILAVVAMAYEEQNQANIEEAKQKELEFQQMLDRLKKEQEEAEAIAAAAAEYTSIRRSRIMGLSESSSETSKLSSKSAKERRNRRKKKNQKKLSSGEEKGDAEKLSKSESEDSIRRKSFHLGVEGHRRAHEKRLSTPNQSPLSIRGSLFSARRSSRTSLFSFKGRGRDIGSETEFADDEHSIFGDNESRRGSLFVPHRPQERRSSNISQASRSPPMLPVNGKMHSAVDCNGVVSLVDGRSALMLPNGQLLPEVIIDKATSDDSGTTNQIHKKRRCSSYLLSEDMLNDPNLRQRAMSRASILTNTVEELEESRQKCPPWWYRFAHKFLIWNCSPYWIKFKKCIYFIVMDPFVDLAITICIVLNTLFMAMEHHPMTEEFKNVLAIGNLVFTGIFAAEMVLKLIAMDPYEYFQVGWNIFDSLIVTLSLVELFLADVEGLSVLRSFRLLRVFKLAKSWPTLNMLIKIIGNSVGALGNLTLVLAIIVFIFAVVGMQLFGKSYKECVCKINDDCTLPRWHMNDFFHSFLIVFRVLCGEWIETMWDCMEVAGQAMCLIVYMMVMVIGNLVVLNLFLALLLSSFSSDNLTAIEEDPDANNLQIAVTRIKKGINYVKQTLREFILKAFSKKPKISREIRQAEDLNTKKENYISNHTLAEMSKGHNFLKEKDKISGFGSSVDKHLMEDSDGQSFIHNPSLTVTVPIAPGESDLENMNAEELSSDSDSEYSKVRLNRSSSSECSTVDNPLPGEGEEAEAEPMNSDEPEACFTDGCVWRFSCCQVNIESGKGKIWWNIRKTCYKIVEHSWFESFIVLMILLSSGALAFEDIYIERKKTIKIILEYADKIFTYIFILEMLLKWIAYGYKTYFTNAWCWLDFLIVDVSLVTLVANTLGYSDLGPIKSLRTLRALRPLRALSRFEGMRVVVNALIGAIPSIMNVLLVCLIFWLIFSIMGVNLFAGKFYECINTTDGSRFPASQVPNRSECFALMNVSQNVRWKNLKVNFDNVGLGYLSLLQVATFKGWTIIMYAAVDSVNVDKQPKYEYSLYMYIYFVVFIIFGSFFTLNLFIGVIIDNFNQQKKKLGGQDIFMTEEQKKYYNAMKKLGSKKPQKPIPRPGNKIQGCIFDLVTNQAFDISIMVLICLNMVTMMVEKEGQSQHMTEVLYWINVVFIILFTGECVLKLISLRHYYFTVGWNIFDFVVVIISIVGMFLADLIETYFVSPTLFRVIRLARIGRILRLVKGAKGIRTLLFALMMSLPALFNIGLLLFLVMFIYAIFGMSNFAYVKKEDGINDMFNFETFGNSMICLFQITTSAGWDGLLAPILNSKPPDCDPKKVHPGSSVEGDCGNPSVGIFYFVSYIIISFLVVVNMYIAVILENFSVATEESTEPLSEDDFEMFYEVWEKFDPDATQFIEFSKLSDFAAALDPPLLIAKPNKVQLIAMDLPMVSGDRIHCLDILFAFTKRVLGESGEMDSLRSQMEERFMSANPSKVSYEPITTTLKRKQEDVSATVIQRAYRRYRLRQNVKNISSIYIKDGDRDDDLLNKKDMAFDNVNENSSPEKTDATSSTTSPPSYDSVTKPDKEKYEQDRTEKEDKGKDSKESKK

In the case of `CS(=O)(=O)NC(=O)c1cc(Cl)c(-n2nc(-c3cccnc3)c3cc(F)ccc32)cc1F` [Example 165, 5-chloro-2-fluoro-4-(5-fluoro-3-(pyridin-3-yl)-1H-indazol-1-yl)-N-(methylsulfonyl)benzamide], the half-inhibitory concentration (IC50) under setting [1] amounted to 5490 nM.
On to `CS(=O)(=O)NC(=O)c1cc(Cl)c(-n2nc(-c3cccc(C#N)c3)c3cc(F)ccc32)cc1F` [Example 166, 5-chloro-4-(3-(3-cyanophenyl)-5-fluoro-1H-indazol-1-yl)-2-fluoro-N-(methylsulfonyl)benzamide], for which, under setting [1], the concentration for half-maximal inhibition (IC50) was determined as 228 nM.
Take `CS(=O)(=O)NC(=O)c1ccc(-n2nc(-c3cccnc3)c3cc(F)ccc32)c(C#N)c1` [Example 167, 3-cyano-4-(5-fluoro-3-(pyridin-3-yl)-1H-indazol-1-yl)-N-(methylsulfonyl)benzamide]: under setting [1], the half-maximal inhibitory concentration (IC50) was greater than 10000 nM.
The same measure, in the same setting: next, `CS(=O)(=O)NC(=O)c1ccc(-n2nc(-c3cccc(C#N)c3)c3cc(F)ccc32)c(C#N)c1` [Example 168, 3-cyano-4-(3-(3-cyanophenyl)-5-fluoro-1H-indazol-1-yl)-N-(methylsulfonyl)benzamide]: greater than 10000 nM.
The same measure, in the same setting: the result for `COc1ccc2c(c1)c(-c1ccc(Cl)cc1F)nn2-c1cc(F)c(C(=O)NS(C)(=O)=O)cc1Cl` [Example 169, 5-chloro-4-(3-(4-chloro-2-fluorophenyl)-5-methoxy-1H-indazol-1-yl)-2-fluoro-N-(methylsulfonyl)benzamide] reads 180 nM.
On the same count and under the same terms, next, `CS(=O)(=O)NC(=O)c1cc(Cl)c(-n2nc(-c3cccc(Cl)c3)c3ccccc32)cc1F` [Example 170, 5-chloro-4-(3-(3-chlorophenyl)-1H-indazol-1-yl)-2-fluoro-N-(methylsulfonyl)benzamide]: 70 nM; `CS(=O)(=O)NC(=O)c1cc(Cl)c(-n2nc(-c3cccc(F)c3)c3ccccc32)cc1F` [Example 171, 5-chloro-2-fluoro-4-(3-(3-fluorophenyl)-1H-indazol-1-yl)-N-(methylsulfonyl)benzamide]: 190 nM; `CS(=O)(=O)NC(=O)c1cc(Cl)c(-n2nc(-c3cccc(C(F)(F)F)c3)c3ccccc32)cc1F` [Example 172, 5-chloro-2-fluoro-N-(methylsulfonyl)-4-(3-(3-(trifluoromethyl)phenyl)-1H-indazol-1-yl)benzamide]: 140 nM.
On to `Cc1ccccc1-c1nn(-c2cc(F)c(C(=O)NS(C)(=O)=O)cc2Cl)c2ccccc12` [Example 173, 5-chloro-2-fluoro-N-(methylsulfonyl)-4-(3-(o-tolyl)-1H-indazol-1-yl)benzamide], for which, under setting [1], the IC50 was 210 nM.
On the same count and under the same terms, next, `COc1ccccc1-c1nn(-c2cc(F)c(C(=O)NS(C)(=O)=O)cc2Cl)c2ccccc12` [Example 174, 5-chloro-2-fluoro-4-(3-(2-methoxyphenyl)-1H-indazol-1-yl)-N-(methylsulfonyl)benzamide]: 850 nM.
As to `CS(=O)(=O)NC(=O)c1cc(Cl)c(-n2nc(-c3ccc(F)cc3Cl)c3ccccc32)cc1F` [Example 175, 5-chloro-4-(3-(2-chloro-4-fluorophenyl)-1H-indazol-1-yl)-2-fluoro-N-(methylsulfonyl)benzamide], under setting [1], the 50% inhibitory concentration (IC50) came out at 80 nM.
Consider `CS(=O)(=O)NC(=O)c1cc(Cl)c(-n2nc(-c3ccc(F)cc3F)c3ccccc32)cc1F` [Example 176, 5-chloro-4-(3-(2,4-difluorophenyl)-1H-indazol-1-yl)-2-fluoro-N-(methylsulfonyl)benzamide], for which the IC50 under setting [1] was found to be 200 nM.
Regarding `CS(=O)(=O)NC(=O)c1cc(Cl)c(-n2nc(-c3cnccc3F)c3ccccc32)cc1F` [Example 177, 5-chloro-2-fluoro-4-(3-(4-fluoropyridin-3-yl)-1H-indazol-1-yl)-N-(methylsulfonyl)benzamide], the IC50 under setting [1] was 970 nM.
With `CS(=O)(=O)NC(=O)c1cc(Cl)c(-n2nc(-c3ccc(C(F)(F)F)cc3)c3ccccc32)cc1F` [Example 178, 5-chloro-2-fluoro-N-(methylsulfonyl)-4-(3-(4-(trifluoromethyl)phenyl)-1H-indazol-1-yl)benzamide], the IC50 under setting [1] was 330 nM.
`CS(=O)(=O)NC(=O)c1cc(Cl)c(-n2nc(-c3ccc(F)cc3)c3ccccc32)cc1F` [Example 179, 5-chloro-2-fluoro-4-(3-(4-fluorophenyl)-1H-indazol-1-yl)-N-(methylsulfonyl)benzamide]: under setting [1], the IC50 was 390 nM.
Take `CS(=O)(=O)NC(=O)c1cc(Cl)c(-n2nc(-c3cccnc3)c3ccccc32)cc1F` [Example 180, 5-chloro-2-fluoro-N-(methylsulfonyl)-4-(3-(pyridin-3-yl)-1H-indazol-1-yl)benzamide]: under setting [1], the half-maximal inhibitory concentration (IC50) was greater than 10000 nM.
Turning to `CS(=O)(=O)NC(=O)c1cc(Cl)c(-n2nc(-c3cccc(C#N)c3)c3ccccc32)cc1F` [Example 181, 5-chloro-4-(3-(3-cyanophenyl)-1H-indazol-1-yl)-2-fluoro-N-(methylsulfonyl)benzamide], the half-inhibitory concentration (IC50) under setting [1] is 837 nM.
With `CS(=O)(=O)NC(=O)c1ccc(-n2nc(-c3cccc(C#N)c3)c3ccccc32)c(C#N)c1` [Example 183, 3-cyano-4-(3-(3-cyanophenyl)-1H-indazol-1-yl)-N-(methylsulfonyl)benzamide], the IC50 under setting [1] is greater than 10000 nM.
As to `CS(=O)(=O)NC(=O)c1cc(Cl)c(-n2nc(-c3ccc(Cl)cc3F)c3ccccc32)cc1F` [Example 184, 5-chloro-4-(3-(4-chloro-2-fluorophenyl)-1H-indazol-1-yl)-2-fluoro-N-(methylsulfonyl)benzamide], the half-maximal inhibitory concentration (IC50) under setting [1] was determined as 70 nM.
On the same count and under the same terms, next, `CS(=O)(=O)NC(=O)c1cc(Cl)c(-n2cc(-c3ccc(F)cc3)c3cc(Cl)cnc32)cc1F` [Example 185, 5-chloro-4-(5-chloro-3-(4-fluorophenyl)-1H-pyrrolo[2,3-b]pyridin-1-yl)-2-fluoro-N-(methylsulfonyl)benzamide]: 80 nM.
For the compound `CS(=O)(=O)NC(=O)c1cc(Cl)c(-n2cc(-c3ccc(F)cc3F)c3cc(Cl)cnc32)cc1F` [Example 186, 5-chloro-4-(5-chloro-3-(2,4-difluorophenyl)-1H-pyrrolo[2,3-b]pyridin-1-yl)-2-fluoro-N-(methylsulfonyl)benzamide], the IC50 under setting [1] came to 80 nM.
In the case of `CS(=O)(=O)NC(=O)c1cc(Cl)c(-n2cc(-c3ccc(C#N)cc3)c3cc(Cl)cnc32)cc1F` [Example 187, 5-chloro-4-(5-chloro-3-(4-cyanophenyl)-1H-pyrrolo[2,3-b]pyridin-1-yl)-2-fluoro-N-(methylsulfonyl)benzamide], the IC50 under setting [1] is 620 nM.
On to `CS(=O)(=O)NC(=O)c1cc(Cl)c(-n2cc(-c3ccc(C(F)(F)F)cc3)c3cc(Cl)cnc32)cc1F` [Example 188, 5-chloro-4-(5-chloro-3-(4-(trifluoromethyl)phenyl)-1H-pyrrolo[2,3-b]pyridin-1-yl)-2-fluoro-N-(methylsulfonyl)benzamide], for which the half-inhibitory concentration (IC50) was determined as 50 nM.
As for `CS(=O)(=O)NC(=O)c1cc(Cl)c(-n2cc(-c3ccc(Cl)cc3F)c3cc(Cl)cnc32)cc1F` [Example 189, 5-chloro-4-(5-chloro-3-(4-chloro-2-fluorophenyl)-1H-pyrrolo[2,3-b]pyridin-1-yl)-2-fluoro-N-(methylsulfonyl)benzamide], the half-inhibitory concentration (IC50) under setting [1] stood at 110 nM.
On the same count and under the same terms, next, `CS(=O)(=O)NC(=O)c1cc(Cl)c(-n2cc(-c3cccc(F)c3)c3cc(Cl)cnc32)cc1F` [Example 190, 5-chloro-4-(5-chloro-3-(3-fluorophenyl)-1H-pyrrolo[2,3-b]pyridin-1-yl)-2-fluoro-N-(methylsulfonyl)benzamide]: 170 nM.
Same read-out and setting: the result for `CS(=O)(=O)NC(=O)c1cc(Cl)c(-n2cc(-c3ccccc3F)c3cc(Cl)cnc32)cc1F` [Example 191, 5-chloro-4-(5-chloro-3-(2-fluorophenyl)-1H-pyrrolo[2,3-b]pyridin-1-yl)-2-fluoro-N-(methylsulfonyl)benzamide] reads 110 nM; that for `CS(=O)(=O)NC(=O)c1cc(Cl)c(-n2cc(-c3cccc(C(F)(F)F)c3)c3cc(Cl)cnc32)cc1F` [Example 192, 5-chloro-4-(5-chloro-3-(3-(trifluoromethyl)phenyl)-1H-pyrrolo[2,3-b]pyridin-1-yl)-2-fluoro-N-(methylsulfonyl)benzamide], 270 nM; that for `CS(=O)(=O)NC(=O)c1cc(Cl)c(-n2cc(-c3ccccc3C(F)(F)F)c3cc(Cl)cnc32)cc1F` [Example 193, 5-chloro-4-(5-chloro-3-(2-(trifluoromethyl)phenyl)-1H-pyrrolo[2,3-b]pyridin-1-yl)-2-fluoro-N-(methylsulfonyl)benzamide], 100 nM.
Same read-out and setting: the result for `CS(=O)(=O)NC(=O)c1cc(Cl)c(-n2cc(-c3cccc(C#N)c3)c3cc(Cl)cnc32)cc1F` [Example 194, 5-chloro-4-(5-chloro-3-(3-cyanophenyl)-1H-pyrrolo[2,3-b]pyridin-1-yl)-2-fluoro-N-(methylsulfonyl)benzamide] reads 480 nM.
As to `CS(=O)(=O)NC(=O)c1cc(Cl)c(-n2cc(-c3ccc(Cl)cc3)c3cc(Cl)cnc32)cc1F` [Example 195, 5-chloro-4-(5-chloro-3-(4-chlorophenyl)-1H-pyrrolo[2,3-b]pyridin-1-yl)-2-fluoro-N-(methylsulfonyl)benzamide], under setting [1], the 50% inhibitory concentration (IC50) was 80 nM.
Still for that read-out and setting: the result for `COc1ccc(-c2cn(-c3cc(F)c(C(=O)NS(C)(=O)=O)cc3Cl)c3ncc(Cl)cc23)cc1` [Example 196, 5-chloro-4-(5-chloro-3-(4-methoxyphenyl)-1H-pyrrolo[2,3-b]pyridin-1-yl)-2-fluoro-N-(methylsulfonyl)benzamide] reads 130 nM; that for `CS(=O)(=O)NC(=O)c1cc(Cl)c(-n2cc(-c3ccc(F)cc3Cl)c3cc(Cl)cnc32)cc1F` [Example 197, 5-chloro-4-(5-chloro-3-(2-chloro-4-fluorophenyl)-1H-pyrrolo[2,3-b]pyridin-1-yl)-2-fluoro-N-(methylsulfonyl)benzamide], 40 nM.
The same measure, in the same setting: next, `CS(=O)(=O)NC(=O)c1cc(Cl)c(-n2cc(-c3ccccc3Cl)c3cc(Cl)cnc32)cc1F` [Example 198, 5-chloro-4-(5-chloro-3-(2-chlorophenyl)-1H-pyrrolo[2,3-b]pyridin-1-yl)-2-fluoro-N-(methylsulfonyl)benzamide]: 170 nM.

The values above are taken from patent publication US10590078B2, “Sodium channel blockers” (Daewoong Pharmaceutical Co., Ltd., priority 2015, dated 2020).
